Source: patent publication US3973021A, “2-[2-(5-Nitro-2-furyl)vinyl]-4-(phydroxyanilino)quinazoline as a bactericide” (Diamond Shamrock Corporation, priority 1975, dated 1976)

How the values were obtained:
[1] = Example XII: 4 week chick feeding test, repeat with five replicates (Table VII); format: in vivo, broiler cross chicks; settings: for Average 4 Week Performance: Feed Efficiency / Average 4 Week Performance: Gain / Improved Response Over Basal Ration: Feed Efficiency / Improved Response Over Basal Ration: Gain: 25g/T
[2] = Example X: 4 week chick feeding test, 25 g/T; format: in vivo, broiler cross chicks; settings: for growth rate and feed efficiency response (in words): 25 g/T, Table IV
Description: (§1) This example compares growth promotion activity of the product of Example I with other growth promotants at a concentration of 25 g/T in the Basal Ration described in Example VII. The other growth promotants include the product described in Example I of U.S. Pat. No. 3,542,784 -- Burch and quinoxaline-1,4-dioxide. Day old broiler cross chicks were weight equalized into groups of 8 chicks each, and four replicates of 8 chicks each were fed the experimental rations over a 4 week period.

[3] = Example XII: 4 week chick feeding test, first set (Table VI); format: in vivo, broiler cross chicks
Description: as §1
The growth promotion tests described in Example X were repeated with the additional testing the products of Examples II and III.

[4] = tested on: Salmonella gallinarum; assay: Bactericide test (agar streak, growth inhibition rated 0/50/100); format: cell-based; settings: Salmonella enterica
Description: (§2) Test formulations were examined for bactericidal and/or bacteriostatic activity against the test organisms shown in Tables A and B. These organisms were chosen as being representative of commercially important pathogens affecting animal agriculture. The antibiotic chlortetracycline was chosen as a positive control, since it has a broad spectrum of activity against a large number of organisms, and its activity can be used for comparative purposes.
(§3) Basic test formulations of the product of Examples I, II, III, and of chlortetracycline were prepared by dissolving 16 mg (0.016 g) in 2.0 ml of stock emulsifier solution (0.25% Triton X-155 in acetone by volume) and making each solution up to 50 ml with deionized water. The concentration of the test compound in the basic formulation was 320 ppm. Lower concentrations of the test compound were obtained by diluting the basic formulation with a 4% solution of the stock emulsifier in deionized water so that each dilution in the series differed only in test compound content.
(§4) Nutrient-tryptic soy agar (NTA) consisting of 2.0% Difco Bactoagar 0.8% nutrient broth (Difco), and 0.5% tryptic soy broth (Difco) was prepared and sterilized by autoclaving. A 2 ml aliquot of each test formulation was added to 8 ml of molten NTA. This mixture was then plated in a sterile polystyrene petri dish (100 × 15 mm). After the agar was set, suspensions of each of the test organisms were simultaneously streaked onto the surface of the agar. The inoculated plates were incubated for 48 hr. at 28°C. The inhibition of growth of each organism was rated by visual comparison with the organism developing on non-treated agar. Growth inhibition reported as percent control was rated in three categories as follows: 0% control, growth equivalent to that on non-treated agar; 50% control, sparse development and separated colonies; 100% control, no visible growth or development of colonies.
(§5) Test formulations of the product of Example IV were examined for bactericidal and/or bacteriostatic activity against the test organisms shown in Table B using the Bactericide Test described in Example V. The inhibition of organism growth with each diluted test formulation was rated visually by comparison with the organism developing on a non-treated control agar plate. Growth inhibition reported as percent control was rated in three categories as follows: 0% control, growth equivalent to that on non-treated agar; 50% control is sparse development and separated colonies; and 100% control, development of individual colonies was not apparent.

[5] = tested on: Salmonella cholerasuis; assay: as above; format: cell-based
Description: as §2, §3, §4, §5

[6] = tested on: Streptococcus faecalis; assay: as above; format: cell-based; settings: Enterococcus faecalis
Description: as §2, §3, §4, §5

[7] = tested on: Staphylococcus aureus; assay: as above; format: cell-based
Description: as §2, §3, §4, §5

[8] = tested on: Escherichia coli; assay: as above; format: cell-based
Description: as §2, §3, §4, §5

[9] = tested on: Salmonella typhimurium; assay: as above; format: cell-based; settings: Salmonella enterica
Description: as §2, §3, §4

[10] = tested on: Bordetella bronchiseptica; assay: as above; format: cell-based
Description: as §2, §3, §4

[11] = tested on: Streptococcus agalactiae; assay: as above; format: cell-based
Description: as §2, §3, §4

[12] = tested on: Erysipelothrix rhusiopathiae; assay: as above; format: cell-based
Description: as §2, §3, §4

[13] = tested on: Streptococcus group E; assay: as above; format: cell-based
Description: as §2, §3, §4

[14] = tested on: Vibrio coli; assay: as above; format: cell-based; settings: Campylobacter coli
Description: as §2, §3, §4

[15] = Example XI: 4 week chick feeding test, five replicates; format: in vivo, broiler cross chicks; settings: Table V
Description: as §1
The growth promotion tests described in Example X were repeated with the exception that fives replicates of 8 chicks each were fed the formulations described in Table V for four weeks.

O=[N+]([O-])c1ccc(-c2nc(Nc3ccc(O)cc3)c3ccccc3n2)o1 [Example III of U.S. 3,542,784 - Burch, 2-(5-nitro-2-furyl)-4-(p-hydroxyaniline)quinazoline, reference compound]
Average 4 Week Performance: Feed Efficiency [1]: 1.737 | Average 4 Week Performance: Gain [1]: 668.1 g | Improved Response Over Basal Ration: Feed Efficiency [1]: +2.7% | Improved Response Over Basal Ration: Gain [1]: -2.1% | growth rate / feed efficiency response (in words) ([1]; Table VII): essentially no effect on growth rate or feed efficiency | Average 4 Week Performance: Feed Efficiency ([2]; 25g/T): 1.525 | Average 4 Week Performance: Gain ([2]; 25g/T): 809.5 g | Improved Response Over Basal Ration: Feed Efficiency ([2]; 25g/T): +1.7% | Improved Response Over Basal Ration: Gain ([2]; 25g/T): +5.8% | growth rate and feed efficiency response (in words) [2]: appeared to give a growth response in this test but with a slight, it any, effect on feed efficiency | growth rate / feed efficiency response (in words) ([3]; Table VI): essentially no effect on growth rate or feed efficiency

O=[N+]([O-])c1ccc(C=Cc2nc(Nc3ccccc3O)c3ccccc3n2)o1 [Example III, 2-[2-(5-nitro-furyl)vinyl]-4-(o-hydroxyanilino)quinazoline]
Average 4 Week Performance: Feed Efficiency [1]: 1.669 | Average 4 Week Performance: Gain [1]: 723.7 g | Improved Response Over Basal Ration: Feed Efficiency [1]: +6.5% | Improved Response Over Basal Ration: Gain [1]: +6.0% | inhibition at 0.125 ppm ([4]; 0.125 ppm): 0% | inhibition at 0.25 ppm ([4]; 0.25 ppm): 0% | inhibition at 0.5 ppm ([4]; 0.5 ppm): 0% | inhibition at 1 ppm ([4]; 1 ppm): 0% | inhibition at 2 ppm ([4]; 2 ppm): 0% | inhibition at 4 ppm ([4]; 4 ppm): 50% | inhibition at 8 ppm ([4]; 8 ppm): 50% | inhibition at 16 ppm ([4]; 16 ppm): 100% | inhibition at 32 ppm ([4]; 32 ppm): 100% | inhibition at 64 ppm ([4]; 64 ppm): 100% | inhibition at 0.125 ppm ([5]; 0.125 ppm): 0% | inhibition at 0.25 ppm ([5]; 0.25 ppm): 0% | inhibition at 0.5 ppm ([5]; 0.5 ppm): 0% | inhibition at 1 ppm ([5]; 1 ppm): 0% | inhibition at 2 ppm ([5]; 2 ppm): 0% | inhibition at 4 ppm ([5]; 4 ppm): 50% | inhibition at 8 ppm ([5]; 8 ppm): 50% | inhibition at 16 ppm ([5]; 16 ppm): 100% | inhibition at 32 ppm ([5]; 32 ppm): 100% | inhibition at 64 ppm ([5]; 64 ppm): 100% | inhibition at 0.125 ppm ([6]; 0.125 ppm): 0% | inhibition at 0.25 ppm ([6]; 0.25 ppm): 0% | inhibition at 0.5 ppm ([6]; 0.5 ppm): 50% | inhibition at 1 ppm ([6]; 1 ppm): 100% | inhibition at 2 ppm ([6]; 2 ppm): 100% | inhibition at 4 ppm ([6]; 4 ppm): 100% | inhibition at 8 ppm ([6]; 8 ppm): 100% | inhibition at 16 ppm ([6]; 16 ppm): 100% | inhibition at 32 ppm ([6]; 32 ppm): 100% | inhibition at 64 ppm ([6]; 64 ppm): 100% | inhibition at 0.125 ppm ([7]; 0.125 ppm): 0% | inhibition at 0.25 ppm ([7]; 0.25 ppm): 0% | inhibition at 0.5 ppm ([7]; 0.5 ppm): 0% | inhibition at 1 ppm ([7]; 1 ppm): 0% | inhibition at 2 ppm ([7]; 2 ppm): 0% | inhibition at 4 ppm ([7]; 4 ppm): 0% | inhibition at 8 ppm ([7]; 8 ppm): 0% | inhibition at 16 ppm ([7]; 16 ppm): 0% | inhibition at 32 ppm ([7]; 32 ppm): 0% | inhibition at 64 ppm ([7]; 64 ppm): 0% | inhibition at 0.125 ppm ([8]; 0.125 ppm): 0% | inhibition at 0.25 ppm ([8]; 0.25 ppm): 0% | inhibition at 0.5 ppm ([8]; 0.5 ppm): 0% | inhibition at 1 ppm ([8]; 1 ppm): 0% | inhibition at 2 ppm ([8]; 2 ppm): 0% | inhibition at 4 ppm ([8]; 4 ppm): 0% | inhibition at 8 ppm ([8]; 8 ppm): 0% | inhibition at 16 ppm ([8]; 16 ppm): 0% | inhibition at 32 ppm ([8]; 32 ppm): 0% | inhibition at 64 ppm ([8]; 64 ppm): 0% | Average 4 Week Performance: Feed Efficiency ([3]; 25g/T): 1.597 | Average 4 Week Performance: Gain ([3]; 25g/T): 766.9 g | Improved Response Over Basal Ration: Feed Efficiency ([3]; 25g/T): +2.3% | Improved Response Over Basal Ration: Gain ([3]; 25g/T): +3.1% | inhibition at 0.125 ppm ([9]; 0.125 ppm): 0% | inhibition at 0.25 ppm ([9]; 0.25 ppm): 0% | inhibition at 0.5 ppm ([9]; 0.5 ppm): 0% | inhibition at 1 ppm ([9]; 1 ppm): 0% | inhibition at 2 ppm ([9]; 2 ppm): 0% | inhibition at 4 ppm ([9]; 4 ppm): 0% | inhibition at 8 ppm ([9]; 8 ppm): 0% | inhibition at 16 ppm ([9]; 16 ppm): 0% | inhibition at 32 ppm ([9]; 32 ppm): 0% | inhibition at 64 ppm ([9]; 64 ppm): 0% | inhibition at 0.125 ppm ([10]; 0.125 ppm): 100% | inhibition at 0.25 ppm ([10]; 0.25 ppm): 100% | inhibition at 0.5 ppm ([10]; 0.5 ppm): 100% | inhibition at 1 ppm ([10]; 1 ppm): 100% | inhibition at 2 ppm ([10]; 2 ppm): 100% | inhibition at 4 ppm ([10]; 4 ppm): 100% | inhibition at 8 ppm ([10]; 8 ppm): 100% | inhibition at 16 ppm ([10]; 16 ppm): 100% | inhibition at 32 ppm ([10]; 32 ppm): 100% | inhibition at 64 ppm ([10]; 64 ppm): 100% | inhibition at 0.125 ppm ([11]; 0.125 ppm): 100% | inhibition at 0.25 ppm ([11]; 0.25 ppm): 100% | inhibition at 0.5 ppm ([11]; 0.5 ppm): 100% | inhibition at 1 ppm ([11]; 1 ppm): 100% | inhibition at 2 ppm ([11]; 2 ppm): 100% | inhibition at 4 ppm ([11]; 4 ppm): 100% | inhibition at 8 ppm ([11]; 8 ppm): 100% | inhibition at 16 ppm ([11]; 16 ppm): 100% | inhibition at 32 ppm ([11]; 32 ppm): 100% | inhibition at 64 ppm ([11]; 64 ppm): 100% | inhibition at 0.125 ppm ([12]; 0.125 ppm): 100% | inhibition at 0.25 ppm ([12]; 0.25 ppm): 100% | inhibition at 0.5 ppm ([12]; 0.5 ppm): 100% | inhibition at 1 ppm ([12]; 1 ppm): 100% | inhibition at 2 ppm ([12]; 2 ppm): 100% | inhibition at 4 ppm ([12]; 4 ppm): 100% | inhibition at 8 ppm ([12]; 8 ppm): 100% | inhibition at 16 ppm ([12]; 16 ppm): 100% | inhibition at 32 ppm ([12]; 32 ppm): 100% | inhibition at 64 ppm ([12]; 64 ppm): 100% | inhibition at 0.125 ppm ([13]; 0.125 ppm): 100% | inhibition at 0.25 ppm ([13]; 0.25 ppm): 100% | inhibition at 0.5 ppm ([13]; 0.5 ppm): 100% | inhibition at 1 ppm ([13]; 1 ppm): 100% | inhibition at 2 ppm ([13]; 2 ppm): 100% | inhibition at 4 ppm ([13]; 4 ppm): 100% | inhibition at 8 ppm ([13]; 8 ppm): 100% | inhibition at 16 ppm ([13]; 16 ppm): 100% | inhibition at 32 ppm ([13]; 32 ppm): 100% | inhibition at 64 ppm ([13]; 64 ppm): 100% | inhibition at 0.125 ppm ([14]; 0.125 ppm): 100% | inhibition at 0.25 ppm ([14]; 0.25 ppm): 100% | inhibition at 0.5 ppm ([14]; 0.5 ppm): 100% | inhibition at 1 ppm ([14]; 1 ppm): 100% | inhibition at 2 ppm ([14]; 2 ppm): 100% | inhibition at 4 ppm ([14]; 4 ppm): 100% | inhibition at 8 ppm ([14]; 8 ppm): 100% | inhibition at 16 ppm ([14]; 16 ppm): 100% | inhibition at 32 ppm ([14]; 32 ppm): 100% | inhibition at 64 ppm ([14]; 64 ppm): 100%

[O-][n+]1cc[n+]([O-])c2ccccc21 [Quinoxaline-1,4-dioxide, quinoxaline-1,4-dioxide]
growth rate and feed efficiency response (in words) [2]: did not have any apparent effect | feed efficiency (in words) [15]: improvement in feed efficiency | growth rate (in words) [15]: questionable effect on growth
